In patent publication US20090041839A1, “PHARMACEUTICAL COMPOSITIONS FOR THE TREATMENT OF PAIN” (priority 2007, published 2009):
Read-outs that look alike come from different tables or passages of the source.

Legend:
[1] = Multiple escalating dose pharmacokinetic study of T-62 soft gelatin capsules (Example 12); format: in vivo; settings: both sexes, human, plasma, healthy adults; for Tmax: median; for AUC(0-inf) / Cmax / AUC: po, arithmetic mean (SD); for AUC: τ = 12 hours, read-out: AUC0-τ
Description: A single-center, randomized, double-blind, parallel-group, placebo-controlled study of the safety, tolerability, and pharmacokinetics of escalating multiple doses of a T-62 composition in soft gelatin capsules (oral dosage form 4) in healthy adult male and female subjects was carried out.
Three cohorts of 12 subjects were enrolled for the study (19-38 years of age). Subjects in each cohort were randomly assigned in a 3:1 allocation to receive multiple doses of either T-62 (n=9) or placebo (n=3). Subjects in each cohort received study medication for a total of 6 days. Subjects in the first cohort received multiple doses of 100 mg T-62 or placebo. Subsequent cohorts of 12 new subjects each received multiple doses of placebo or a higher dose level of T-62 (i.e., 2×100 mg for the second cohort and 4×100 mg for the third cohort).
Each subject in each dosing cohort completed Screening, Baseline, Treatment, and Follow-Up Phases. The Screening Phase was conducted on an outpatient basis within 30 days, but no less than 3 days, prior to the start of the Baseline Phase. The Baseline Phase consisted of clinical research unit (CRU) admission and final qualification assessments. The Treatment Phase comprised of dosing, post-treatment safety assessments, and blood collection.
On the morning of Day 1, subjects received a single dose of study drug; no additional study drug were administered on Day 1. Twice-daily dosing (one morning dose and one evening dose) commenced on Day 2 and continue through Day 5. Subjects received a final dose of study drug on the morning of Day 6. Once subjects in each cohort had completed dosing, an additional 48 hours of blood sampling was conducted following the final dose to characterize the pharmacokinetics of T-62 at steady state. Subjects were discharged at the end of the 48-hour blood sampling (Day 8). The Follow-Up Phase occurred 2 days (but no more than 4 days) after discharge from the CRU.
For all cohorts, on Day 2 through Day 5, subjects were not allowed to eat any food beginning 1 hour prior to the morning and evening doses of study drug and until 2 hours after study drug administration. On Day 1 and Day 6, subjects fasted for a minimum of 9 hours pre-dose to 4 hours post-dose.
Blood samples for determining plasma concentrations of T-62 and pharmacokinetic parameters were obtained immediately prior to dosing on Day 1 and at regular intervals post-dosing over 12 hours in each treatment cohort. On Days 2-5, blood samples for pharmacokinetic analysis were collected each day prior to the morning and evening doses of study drug. Once subjects in each cohort had completed dosing on Day 6, an additional 48 hours of plasma sampling were conducted following the final dose of study drug to characterize the pharmacokinetics of T-62 at steady state.

adenosine A1 receptors = settings: Li et al. 2003, U.S. Pat. No. 6,248,774 and No. 6,489,356, cited from earlier work
[2] = 200 mg, Day 1, single dose 2 × 100 mg (oral dosage form 4), n = 9
[3] = 400 mg, Day 1, single dose 4 × 100 mg (oral dosage form 4), n = 9
[4] = 100 mg, Day 1, single dose 100 mg (oral dosage form 4), n = 8
[5] = 100 mg, Steady state (Day 6), 100 mg BID (oral dosage form 4), n = 8
[6] = 200 mg, Steady state (Day 6), 2 × 100 mg BID (oral dosage form 4), n = 9
[7] = 400 mg, Steady state (Day 6), 4 × 100 mg BID (oral dosage form 4), n = 9

SMILES: Nc1sc2c(c1C(=O)c1ccc(Cl)cc1)CCCC2 [T-62, (2-amino-4,5,6,7-tetrahydrobenzo[b]thiophen-3-yl)(4-chlorophenyl)-methanone]
- Tmax [1, 2]: 1 h
- Tmax [1, 3]: 2 h
- AUC(0-inf) [1, 4]: 96.9 ng·h/mL
- Cmax [1, 4]: 28.8 ng/mL
- AUC [1, 4]: 89.5 ng·h/mL
- AUC(0-inf) [1, 5]: 407 ng·h/mL
- Cmax [1, 5]: 55.9 ng/mL
- AUC [1, 5]: 197 ng·h/mL
- AUC(0-inf) [1, 2]: 254 ng·h/mL
- Cmax [1, 2]: 60.7 ng/mL
- AUC [1, 2]: 211 ng·h/mL
- AUC(0-inf) [1, 6]: 995 ng·h/mL
- Cmax [1, 6]: 107 ng/mL
- AUC [1, 6]: 450 ng·h/mL
- AUC(0-inf) [1, 3]: 496 ng·h/mL
- Cmax [1, 3]: 71.4 ng/mL
- AUC [1, 3]: 399 ng·h/mL
- AUC(0-inf) [1, 7]: 2210 ng·h/mL
- Cmax [1, 7]: 179 ng/mL
- AUC [1, 7]: 958 ng·h/mL
- Tmax ([1]; Day 1, single dose 100 mg (oral dosage form 4), n = 8): 1 h
- Adverse side effects (adenosine A1 receptors; compared with administration of adenosine): devoid of the adverse side effects associated with administration of adenosine
- Effect on inflammatory and neuropathic pain (adenosine A1 receptors; orally effective): reduce inflammatory and neuropathic pain
